{"source": "patent US4798821A", "about": "“Antihypertensive therapy for diabetics” (Merck & Co., Inc., priority 1987, dated 1989)", "type_in_all_cases": "in vivo, rat", "key": {"[1]": {"test": "Serum glucose level of treated rats", "settings": "for Serum Glucose (after 27 days): after 27 days of treatment, mean ± std. dev.", "description": "(§1) In the determination, the following groups of rats were employed, each group consisting of ten rats.\n(§2) Diabetic rats were CD rats in which diabetes was induced by the injection of streptozotocin into the femoral vein at a dose of 60 mg/kg. Hyperglycemia was confirmed by measuring glucose levels in blood obtained by orbital bleeding. (A standard medical technique for obtaining blood form the orbital sinus is described in \"Laboratory Animal Medicine\" edited by J. G. Fox et al., Academic Press, Inc., Orlando, Fla., 1984.)\n(§3) Dosing was initiated with cyclopeptide compound four days after injection of streptozotocin to induce diabetes in the diabetic rats. Dosing was carried out by administering the cyclopeptide compound in the drinking water at a dose of 50 μg/rat/day.\n(§4) The rats were housed two to a box and fed standard rat food and water ad libitum. Blood pressure was measured indirectly with a photoelectric system with a tail cuff containing a built in sensor (Harvard Biosciences,Cambridge, MA). The instrument was calibrated on each day of use with a sphygmomanometer. Six to eight recordings were made for each rat.\n(§5) At the beginning of the experiment, the mean weights of the CD rats were 160 grams and the SH rats were 220 grams. The body weights after 38 days may be seen in Table 1. The serum glucose level, measured after 27 days of treatment also may be seen in Table 1."}, "[2]": {"tested_on": "spontaneously hypertensive (SH) rats", "test": "Systolic blood pressure (tail cuff) in spontaneously hypertensive rats", "settings": "treated SH rats", "description": "as §1\nGroup 4 Spontaneously hypertensive (SH) rats\nGroup 5 Spontaneously hypertensive rats treated with cyclopeptide compound\nSH rats were commercially available spontaneously hypertensive rats.\nas §3, §4\nThe blood pressure measurements of treated and untreated spontaneously hypertensive rats compared with normal rats may be seen in FIG. 2.\nFIG. 2 is a graph in which the systolic blood pressure of normal, spontaneously hypertensive and treated spontaneously hypertensive rats are plotted against a period of time in days."}, "[3]": {"tested_on": "diabetic rats", "test": "Systolic blood pressure (tail cuff) in streptozotocin-diabetic rats", "settings": "treated diabetic rats", "description": "as §1\nGroup 3 Diabetic rats treated with cyclopeptide compound\nNormal rats were commercially available laboratory rats identified as CD rats.\nas §2\nDosing was initiated with cyclopeptide compound four days after injection of streptozotocin to induce diabetes in the diabetic rats. […]\nas §4\nBlood pressure measurements were initated 8 days following injection of streptozotocin (4 days after start of treatment).\nFIG. 1 is a graph in which the blood pressures of normal, diabetic and treated diabetic rats are plotted against a period of time in days. (Each point is the mean of 7 to 10 rats±standard deviation.)"}, "[4]": {"test": "Body weight of treated rats", "settings": "for Body Weight (after 38 days): mean ± std. dev.", "description": "as §1, §2, §3, §4, §5"}, "[5]": {"settings": "diabetic rat or spontaneously hypertensive rat"}}}
{"smiles": "CC(C)[C@@H]1NC(=O)[C@H](CCCCN)NC(=O)[C@@H](Cc2c[nH]c3ccccc23)NC(=O)[C@H](Cc2ccc(O)cc2)NC(=O)[C@H](C)N(C)C(=O)[C@H](Cc2ccccc2)NC1=O", "note": "[Compound IA, cyclo-(N-MeAla-Tyr-(D)Trp-Lys-Val-Phe)]", "values": [{"measurement": "Serum Glucose (after 27 days)", "setting": "[1]; Diabetic CD rats (streptozotocin) + Compound IA in drinking water", "result": "352 ± 52", "unit": "mg %"}, {"measurement": "Serum Glucose (after 27 days)", "setting": "[1]; SH rats + Compound IA in drinking water, P = <0.05 relative to normal CD", "result": "90 ± 10", "unit": "mg %"}, {"measurement": "effect on serum glucose level (in words)", "setting": "[1]; [5]", "result": "no significant effect"}, {"measurement": "reduction in systolic blood pressure", "setting": "[2]; 10th day of treatment, P=<0.02", "result": 11, "unit": "%"}, {"measurement": "inhibition of blood pressure after the 10th day", "setting": "[2]; after 10th day, even after increasing dose to 200 μg/rat/day on 40th day", "result": "no further inhibition was evident"}, {"measurement": "reduction in blood pressure", "setting": "[3]; 33rd day of treatment, 100 μg/rat/day from 21st day, P=<0.005", "result": 18, "unit": "%"}, {"measurement": "reduction in blood pressure", "setting": "[3]; 38th day of treatment, 100 μg/rat/day from 21st day, P=<0.001", "result": 21, "unit": "%"}, {"measurement": "reduction in blood pressure", "setting": "[3]; after 17 days of treatment, 50 μg/rat/day in drinking water, P=<0.05", "result": 14, "unit": "%"}, {"measurement": "Body Weight (after 38 days)", "setting": "[4]; Diabetic CD rats (streptozotocin) + Compound IA in drinking water, 50 μg/rat/day, doubled to 100 μg/rat/day on 21st day", "result": "281 ± 63", "unit": "gms"}, {"measurement": "Body Weight (after 38 days)", "setting": "[4]; SH rats + Compound IA in drinking water", "result": "285 ± 17", "unit": "gms"}, {"measurement": "effect on body weight (in words)", "setting": "[4]; [5]", "result": "no significant effect"}]}
